Experimental data: US20220283175A1, “METALLOENZYMES FOR BIOMOLECULAR RECOGNITION OF N-TERMINAL MODIFIED PEPTIDES” (Encodia, Inc., priority 2020, published 2022)
Residues, ends and D or L forms follow the SMILES beside them. *: point of attachment. Benzoyl(4-SO2NH2) = NS(=O)(=O)c1ccc(C(=O)*)cc1

Tests used:
wild-type hCAII protein = wild-type hCAII protein (Homo sapiens, UniProt P00918); test: colorimetric IC50 assay (pNPA hydrolysis) with wild-type hCAII; assay type: biochemical; conditions: for IC50: 300 nM wild-type hCAII; for Fold Enhancement: relative to NTM M64
Protocol: The colorimetric assay used 300 nM of wild-type carbonic anhydrase incubated in 45 μL of 50 mM MOPS (pH 7.5), 33 mM Na2SO4, and 1 mM EDTA aliquoted into a 96-well, clear, flat-bottom plate. To each column of the plate, a 1/10 dilution series from 1 mM to 0.1 nM of each NTM was added and incubated at 25° C. for 10 minutes to reach binding equilibrium. To this, 1 mM p-nitrophenylacetate (pNPA) was added to each well and screened on a plate reader at 405 nm wavelength. The initial rate of hydrolysis was observed over the first 60 seconds. The slopes versus the concentration of NTM were put into a non-linear regression equation to determine the IC50 of the NTM to the carbonic anhydrase.
The N-terminally modified peptides were then evaluated using colorimetric IC50 assay to determine relative binding affinity of NTM-AAEIR to wild-type hCAII protein based on NTM-AAEIR inhibition capacity. The slopes versus the concentration of NTM-AAEIR were put into a non-linear regression equation to determine the IC50 of the selected NTM-AAEIR peptides to the wild-type hCAII.

[1] = molecular target: human carbonic anhydrase II (hCAII) (Homo sapiens, UniProt P00918); test: hCAII functional assay (hydrolysis of p-nitrophenylacetate, pNP release); assay type: biochemical; conditions: 1 μM hCAII, 500 μM pNP-OAc, 10 min at 37° C.
Protocol: A functional assay for hCAII enzyme was set up. Carbonic anhydrase catalyzes the hydrolysis of 4-nitrophenyl acetate (4-NPA) to nitrophenol, which can be monitored by absorbance at 400 nm. The enzymatic carbonic anhydrase assay generally includes 0.2-1.0 μM enzyme and 10-500 μM 4-NPA in 20-200 μL in assay buffer. […] Metal chelating agents (EDTA or EGTA), salt (NaCl, sulfate), detergent (Tween or Triton), and organic additives (acetonitrile, DMSO) may be employed to facilitate enzyme stability and reagent solubility. For the assay, 1 μM human carbonic anhydrase II, 50 mM MOPS (pH 7.6), 33 mM disodium sulfate, and 1 mM EDTA. To generate NTM-modified peptides, azide-derivatized peptides (via azide-PEG-amine and carbodiimide coupling to C-terminus of peptide) were conjugated to DBCO-coupled beads. […] To evaluate P1 dependence of the binding reaction, multiple P1 residues has been tested.

IC50 [1] [nM]	Compound	IC50 (wild-type hCAII protein; free NTM) [nM]	Fold Enhancement (wild-type hCAII protein; free NTM)	Fold Enhancement (wild-type hCAII protein; NTM-AAEIR)
–	NS(=O)(=O)c1ccc(C(=O)O)nc1 [M66]	992	0.5	–
–	NS(=O)(=O)c1ccc(C(=O)O)c([N+](=O)[O-])c1 [M67, 2-Nitro-4-sulfamoylbenzoic acid]	124	3.8	2.0
–	Cc1cc(S(N)(=O)=O)ccc1C(=O)O [M74, 2-methyl-4-sulfamoylbenzoic acid]	2040	0.2	–
–	NS(=O)(=O)c1ccc(C(=O)O)c(Cl)c1 [M76, 2-Chloro-4-sulfamoylbenzoic acid]	180	2.6	1.9
–	Nc1cc(S(N)(=O)=O)ccc1C(=O)O [2-NH2, 2-Amino-4-sulfamoylbenzoic acid]	1380	0.3	–
–	NS(=O)(=O)c1ccc(C(=O)O)cn1 [M65, 6-Sulfamoylpyridine-3-carboxylic acid]	211	2.2	0.3
–	NS(=O)(=O)c1ccc(C(=O)O)cc1F [M88, 3-Fluoro-4-sulfamoylbenzoic acid]	110	4.3	1.6
183	C[C@H](NC(=O)c1ccc(S(N)(=O)=O)cc1)C(=O)N[C@@H](Cc1ccccc1)C(=O)N[C@@H](C)C(=O)N[C@@H](C)C(=O)N[C@@H](CCC(=O)O)C(N)=O [(SAB)AFAAE] ({Benzoyl(4-SO2NH2)}-AFAAE-NH2)	–	–	–
–	NS(=O)(=O)c1ccc(C(=O)O)c(F)c1 [M75, 2-Fluoro-4-sulfamoylbenzoic acid]	224	2.1	2.2
45	C[C@H](NC(=O)[C@H](C)NC(=O)[C@H](Cc1ccccc1)NC(=O)c1ccc(S(N)(=O)=O)cc1)C(=O)N[C@@H](C)C(=O)N[C@@H](CCC(=O)O)C(N)=O [(SAB)FAAAE] ({Benzoyl(4-SO2NH2)}-FAAAE-NH2)	–	–	–
–	COc1cc(S(N)(=O)=O)ccc1C(=O)O [M73, 2-Methoxy-4-sulfamoylbenzoic acid]	65400	0.0	–
